Experimental data taken from ChEMBL document CHEMBL2046269, “Phthalide and isocoumarin derivatives produced by an Acremonium sp. isolated from a mangrove Rhizophora apiculata” (2012).
Values after ≈ are worked out from the molar mass of the structure shown.

System: Candida albicans
Experiment: Antifungal activity against Candida albicans NCPF 3153 after 15 hrs by colorimetric broth microdilution test
Type: functional
Conditions: NCPF 3153, 15 h

C[C@H]1CCC/C=C/[C@@H]2C[C@H](O)C[C@H]2[C@H](O)/C=C/C(=O)O1 [BREFELDIN A]
MIC: 32 µg/mL (≈ 114 µM)
